Structures can show the parent of a compound that is named as a salt. Where two headings read alike, the source gives them in different places.
Tests used:
ovariectomized rats [1] = test system: ovariectomized rats; design: species or system Sprague Dawley rats; details: rat, in vivo, po
Source text: (§1) Seventy-five day old female Sprague Dawley rats (weight range of 200 to 225g) were obtained from Charles River Laboratories (Portage, MI). The animals were either bilaterally ovariectomized (OVX) or exposed to a Sham surgical procedure at Charles River Laboratories, and then shipped after one week. Upon arrival, they were housed in metal hanging cages in groups of 3 or 4 per cage and had ad libitum access to food (calcium content approximately 0.5%) and water for one week. Room temperature was maintained at 22.2° ± 1.7° C with a minimum relative humidity of 40%. The photoperiod in the room was 12 hours light and 12 hours dark.
(§2) After a one week acclimation period (therefore, two weeks post-OVX) daily dosing with test compound was initiated. 17a-ethynyl estradiol or the test compound were given orally, unless otherwise stated, as a suspension in 1% carboxymethylcellulose or dissolved in 20% cyclodextrin. Animals were dosed daily for 4 days. Following the dosing regimen, animals were weighed and anesthetized with a ketamine: Xylazine (2:1, V:V) mixture and a blood sample was collected by cardiac puncture. The animals were then sacrificed by asphyxiation with CO2, the uterus was removed through a midline incision, and a wet uterine weight was determined.
Uteri were kept at 4° C until time of enzymatic analysis. The uteri were then homogenized in 50 volumes of 50 mM Tris buffer (pH - 8.0) containing 0.005% Triton X-100. Upon addition of 0.01% hydrogen peroxide and 10 mM O-phenylenediamine (final concentrations) in Tris buffer, increase in absorbance was monitored for one minute at 450 nm. The presence of eosonophils in the uterus is an indication of estrogenic activity of a compound. The maximal velocity of a 15 second interval was determined over the initial, linear portion of the reaction curve.

[2] = test system: MCF-7 breast adenocarcinoma cells; test: MCF-7 Proliferation Assay (tritiated thymidine); assay type: cell-based; details: Homo sapiens, MCF7; MCF-7 cells, 48 hours with drug, tritiated thymidine pulse 4 hours
Experimental: MCF-7 breast adenocarcinoma cells (ATCC HTB 22) were maintained in MEM (minimal essential medium, phenol red-free, Sigma, St. Louis, MO) supplimented with 10% fetal bovine serum (FBS) (V/V), L-glutamine (2 mM), sodium pyruvate (1 mM), HEPES {(N-[2-hydroxyethyl]piperazine-N'-[2-ethanesulfonic acid]10 mM}, non-essential amino acids and bovine insulin (1 ug/mL) (maintenance medium). Ten days prior to assay, MCF-7 cells were switched to maintenance medium supplemented with 10% dextran coated charcoal stripped fetal bovine serum (DCC-FBS) assay medium) in place of 10% FBS to deplete internal stores of steroids. MCF-7 cells were removed from maintenance flasks using cell dissociation medium (Ca++/Mg++ free HBSS (phenol red-free) supplemented with 10 mM HEPES and 2 mM EDTA). Cells were washed twice with assay medium and adjusted to 80,000 cells/mL. Approximately […] (8,000 cells) were added to flat-bottom microculture wells (Costar 3596) and incubated at 37° C in a 5% CO2 humidified incubator for 48 hours to allow for cell adherence and equilibration after transfer. Serial dilutions of drugs or DMSO as a diluent control were prepared in assay medium and […] to triplicate microcultures followed by […] assay medium for a final volume of […]. After an additional 48 hours at 37° C in a 5% CO2 humidified incubator, microcultures were pulsed with tritiated thymidine (1 uCi/well) for 4 hours. Cultures were terminated by freezing at -70° C for 24 hours followed by thawing and harvesting of microcultures using a Skatron Semiautomatic Cell Harvester. Samples were counted by liquid scintillation using a Wallac BetaPlace b counter. Results in Table 4 below show the IC50 for certain compounds of the present invention.

ovariectomized rats [3] = test: Serum cholesterol analysis (OVX rat, 4-day dosing); assay type: in vivo, Sprague Dawley rats; details: Rattus norvegicus, po, 96 h, daily for 4 days, read-out: Serum Cholesterol (% decrease vs. OVX)
Source text: as §1, §2
Blood samples were allowed to clot at room temperature for 2 hours, and serum was obtained following centrifugation for 10 minutes at 3000 rpm. Serum cholesterol was determined using a Boehringer Mannheim Diagnostics high performance cholesterol assay. Briefly the cholesterol was oxidized to cholest-4-en-3-one and hydrogen peroxide. The hydrogen peroxide was then reacted with phenol and 4-aminophenazone in the presence of peroxidase to produce a p-quinone imine dye, which was read spectrophotemetrically at 500 nm. Cholesterol concentration was then calculated against a standard curve. The entire assay was automated using a Biomek Automated Workstation.

[4] = test system: ovariectomized test animals; test: Osteoporosis Test Procedure (OVX rat, 35-day dosing, distal femur metaphysis X-ray image analysis); assay type: in vivo, Sprague Dawley rats; details: OVX rats, daily for 35 days, mean ± SEM
Source text: as §1
Following the General Preparation Procedure, infra, the rats were treated daily for 35 days (6 rats per treatment group) and sacrificed by carbon dioxide asphyxiation on the 36th day. The 35 day time period was sufficient to allow maximal reduction in bone density, measured as described herein. At the time of sacrifice, the uteri were removed, dissected free of extraneous tissue, and the fluid contents were expelled before determination of wet weight in order to confirm estrogen deficiency associated with complete ovariectomy. […] The uteri were then placed in 10% neutral buffered formalin to allow for subsequent histological analysis.
The right femurs were excised and digitilized x-rays generated and analyzed by an image analysis program (NIH image) at the distal metaphysis. The proximal aspect of the tibiae from these animals were also scanned by quantitative computed tomography.
In accordance with the above procedures, compounds of the present invention and ethynyl estradiol (EE2) in 20% hydroxypropyl b-cyclodextrin were orally administered to test animals. Distal femur metaphysis data presented in Tables 2 and 3 below are the results of formula I compound treatments compared to intact and ovariectomized test animals. Results are reported as the mean ± the standard error of the mean.

Compound	Uterine EPO (V. max) (ovariectomized rats [1]; 0.01 mg/kg)	Uterine EPO (V. max) (ovariectomized rats [1]; 0.1 mg/kg)	Uterine EPO (V. max) (ovariectomized rats [1]; 1 mg/kg)	IC50 [2]	inhibition in vivo at 0.01 mg/kg (ovariectomized rats [3])	inhibition in vivo at 0.1 mg/kg (ovariectomized rats [3])	inhibition in vivo at 1 mg/kg (ovariectomized rats [3])	Uterine EPO (V. max) (ovariectomized rats [1]; 10 mg/kg)	Distal Femur Metaphysis (X-ray Image Analysis-Gray Score) ([4]; Table 3, oral, dose 0.1 mg/kg, OVX control 6.2 ± 1.4, Sham 31.1 ± 6.3)	Distal Femur Metaphysis (X-ray Image Analysis-Gray Score) ([4]; Table 3, oral, dose 1.0 mg/kg, OVX control 6.2 ± 1.4, Sham 31.1 ± 6.3)	Distal Femur Metaphysis (X-ray Image Analysis-Gray Score) ([4]; Table 3, oral, dose 3.0 mg/kg, OVX control 6.2 ± 1.4, Sham 31.1 ± 6.3)	inhibition in vivo at 10 mg/kg (ovariectomized rats [3])	Distal Femur Metaphysis (X-ray Image Analysis-Gray Score) ([4]; Table 2, oral in 20% hydroxypropyl b-cyclodextrin, dose 0.1 mg/kg, OVX control 8.1 ± 1.8, Sham 27.2 ± 6.0)	Distal Femur Metaphysis (X-ray Image Analysis-Gray Score) ([4]; Table 2, oral, dose 1.0 mg/kg, OVX control 8.1 ± 1.8, Sham 27.2 ± 6.0)	Distal Femur Metaphysis (X-ray Image Analysis-Gray Score) ([4]; Table 2, oral, dose 10.0 mg/kg, OVX control 8.1 ± 1.8, Sham 27.2 ± 6.0)
Oc1ccc(-c2sc3ccccc3c2Oc2ccc(OCCN3CCCC3)cc2)cc1 [Example 3, [3-[4-[2-(1-pyrolidinyl)ethoxy]phenoxy]-2-(4-hydroxyphenyl)]benzo[b]thiophene]	1.8	4.8	5.4	4 nM	50.6%	47.8%	49.2%								
COc1ccc(-c2sc3cc(OC)ccc3c2Oc2ccc(OCCN3CCCCC3)cc2)cc1 [Example 10, [6-methoxy-3-[4-[2-(1-piperidinyl)ethoxy]-phenoxy]-2-(4-methoxyphenyl)]benzo[b]thiophene]		12.0	17.7	2 nM		50.2%	59%	4.8	15.3 ± 3.0	15.2 ± 3.7	18.5 ± 3.2∗	38.9%			
Oc1ccc(-c2sc3cc(O)ccc3c2Oc2ccc(OCCN3CCCCC3)cc2)cc1 [Example 19, [6-hydroxy-3-[4-[2-(1-piperidinyl)-ethoxy]phenoxy]-2-(4-hydroxyphenyl)]benzo[b]thiophene oxalate]	2.1	2.4	3.6	0.028 nM	25.1%	45.3%	53.6%						14.7 ± 1.9	15.0 ± 3.5∗	15.3 ± 4.0∗
Oc1ccc(-c2sc3cc(O)ccc3c2Oc2ccc(OCCN3CCCC3)cc2)cc1 [Example 21, [6-Hydroxy-3-[4-[2-(1-pyrolidinyl)ethoxy]phenoxy]-2-(4-hydroxyphenyl)]benzo[b]thiophene]	1.2	4.8	9.3	0.05 nM	26.8%	47.5%	54.4%								
CCN(CC)CCOc1ccc(Oc2c(-c3ccc(O)cc3)sc3cc(O)ccc23)cc1 [Example 23, [6-Hydroxy-3-[4-[2-(1-N,N-diethylamino)ethoxy]phenoxy]-2-(4-hydroxyphenyl)]benzo[b]thiophene]	3.3	84.3	150.6	0.08 nM	36.2%	47.2%	66.1%								
Oc1ccc(-c2sc3cc(O)ccc3c2Sc2ccc(OCCN3CCCCC3)cc2)cc1 [Example 53, [6-Hydroxy-3-[4-[2-(1-piperidinyl)ethoxy]-thiophenoxy]-2-(4-hydroxyphenyl)]benzo[b]thiophene]		0.9	1.3	0.28 nM		62.7%	57.5%	4.8				58.7%			

From EP0729956B1, “Benzothiophene compounds, intermediates, compositions, and methods” (ELI LILLY AND COMPANY, priority 1995, dated 1996)
